Assay results reported in PubChem BioAssay AID1963422 (Molecular Pharmacology Branch, DTP, NCI, 2024).

System: 463943-066-T-J2-PDC complex spheroid growth
Experiment: Anticancer human tumor 463943-066-T-J2-PDC patient-derived colon adenocarcinoma cell line growth inhibition [Asc]
Details: for IC50: curve of first compound; for viability, T/C: stronger effect = lower value; active means viability on the fitted dose curve at most 10% of control; inactive means the rest
In short: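 Stromal components (HUVEC and hMSC) are co-assembled with the cancer cells into multicellular spheroids. Drugs are then added singly or paired, at concentrations falling by half-log increments from a clinically achievable maximum, capped at 10 microM without known Cmax.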
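Further: compound exposure lasted 7 days.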
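Wherever viability, T/C is given: 100% = DMSO vehicle control wells.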

C#Cc1c(F)ccc2cc(O)cc(-c3ncc4c(N5CC6CCC(C5)N6)nc(OCC56CCCN5CC(F)C6)nc4c3F)c12 (centres undefined) + Cc1c(S(C)(=O)=O)c(-c2cc(F)cc(N3CCN(c4ccc(NS(=O)(=O)c5ccc(NC(CCN6CCC(C(=O)OCCCP(=O)(O)O)CC6)CSc6ccccc6)c(S(=O)(=O)C(F)(F)F)c5)cc4)CC3)c2)c(-c2ccc(Cl)cc2)n1C(C)C
> 10 µM: IC50 (second compound 0.0316 µM) | IC50 (second compound 0.1 µM) | IC50 (second compound 0.316 µM) | IC50 (second compound 1 µM) | IC50 (second compound 3.16 µM)
< 0.0316 µM: IC50 (second compound 10 µM)
inactive: viability, T/C (second compound 0.0316 µM, first compound 0.0316 µM) 96.3% | viability, T/C (second compound 0.0316 µM, first compound 0.1 µM) 93.3% | viability, T/C (second compound 0.0316 µM, first compound 0.316 µM) 101% | viability, T/C (second compound 0.0316 µM, first compound 1 µM) 102% | viability, T/C (second compound 0.0316 µM, first compound 3.16 µM) 103% | viability, T/C (second compound 0.0316 µM, first compound 10 µM) 97.5% | viability, T/C (second compound 0.1 µM, first compound 0.0316 µM) 101% | viability, T/C (second compound 0.1 µM, first compound 0.1 µM) 97.1% | viability, T/C (second compound 0.1 µM, first compound 0.316 µM) 101% | viability, T/C (second compound 0.1 µM, first compound 1 µM) 94.1% | viability, T/C (second compound 0.1 µM, first compound 3.16 µM) 98% | viability, T/C (second compound 0.1 µM, first compound 10 µM) 82.1% | viability, T/C (second compound 0.316 µM, first compound 0.0316 µM) 93.4% | viability, T/C (second compound 0.316 µM, first compound 0.1 µM) 92.8% | viability, T/C (second compound 0.316 µM, first compound 0.316 µM) 88.4% | viability, T/C (second compound 0.316 µM, first compound 1 µM) 93.1% | viability, T/C (second compound 0.316 µM, first compound 3.16 µM) 97.2% | viability, T/C (second compound 0.316 µM, first compound 10 µM) 73.4% | viability, T/C (second compound 1 µM, first compound 0.0316 µM) 74.5% | viability, T/C (second compound 1 µM, first compound 0.1 µM) 76.5% | viability, T/C (second compound 1 µM, first compound 0.316 µM) 80.5% | viability, T/C (second compound 1 µM, first compound 1 µM) 80.6% | viability, T/C (second compound 1 µM, first compound 3.16 µM) 77.7% | viability, T/C (second compound 1 µM, first compound 10 µM) 72.3% | viability, T/C (second compound 3.16 µM, first compound 0.0316 µM) 65.3% | viability, T/C (second compound 3.16 µM, first compound 0.1 µM) 64.3% | viability, T/C (second compound 3.16 µM, first compound 0.316 µM) 63.3% | viability, T/C (second compound 3.16 µM, first compound 1 µM) 62.1% | viability, T/C (second compound 3.16 µM, first compound 3.16 µM) 65.9% | viability, T/C (second compound 3.16 µM, first compound 10 µM) 61.3% | viability, T/C (second compound 10 µM, first compound 0.0316 µM) 48.9% | viability, T/C (second compound 10 µM, first compound 0.1 µM) 47.7% | viability, T/C (second compound 10 µM, first compound 0.316 µM) 50.2% | viability, T/C (second compound 10 µM, first compound 1 µM) 51.2% | viability, T/C (second compound 10 µM, first compound 3.16 µM) 51.2% | viability, T/C (second compound 10 µM, first compound 10 µM) 43.9%

Cc1nc(N2CCC3(CC2)COC(C)C3N)c(CO)nc1Sc1ccnc(N)c1Cl (centres undefined) + Cc1c(S(C)(=O)=O)c(-c2cc(F)cc(N3CCN(c4ccc(NS(=O)(=O)c5ccc(NC(CCN6CCC(C(=O)OCCCP(=O)(O)O)CC6)CSc6ccccc6)c(S(=O)(=O)C(F)(F)F)c5)cc4)CC3)c2)c(-c2ccc(Cl)cc2)n1C(C)C
> 3 µM: IC50 (second compound 0.0316 µM) | IC50 (second compound 0.1 µM) | IC50 (second compound 0.316 µM) | IC50 (second compound 1 µM)
0.185 µM: IC50 (second compound 3.16 µM)
inactive: viability, T/C (second compound 0.0316 µM, first compound 0.00949 µM) 106% | viability, T/C (second compound 0.0316 µM, first compound 0.03 µM) 86.8% | viability, T/C (second compound 0.0316 µM, first compound 0.0949 µM) 87.3% | viability, T/C (second compound 0.0316 µM, first compound 0.3 µM) 87.3% | viability, T/C (second compound 0.0316 µM, first compound 0.949 µM) 77.8% | viability, T/C (second compound 0.0316 µM, first compound 3 µM) 63.9% | viability, T/C (second compound 0.1 µM, first compound 0.00949 µM) 93.1% | viability, T/C (second compound 0.1 µM, first compound 0.03 µM) 87.2% | viability, T/C (second compound 0.1 µM, first compound 0.0949 µM) 90.7% | viability, T/C (second compound 0.1 µM, first compound 0.3 µM) 82.4% | viability, T/C (second compound 0.1 µM, first compound 0.949 µM) 75.1% | viability, T/C (second compound 0.1 µM, first compound 3 µM) 58.1% | viability, T/C (second compound 0.316 µM, first compound 0.00949 µM) 84% | viability, T/C (second compound 0.316 µM, first compound 0.03 µM) 85.1% | viability, T/C (second compound 0.316 µM, first compound 0.0949 µM) 78.5% | viability, T/C (second compound 0.316 µM, first compound 0.3 µM) 71.1% | viability, T/C (second compound 0.316 µM, first compound 0.949 µM) 65.8% | viability, T/C (second compound 0.316 µM, first compound 3 µM) 52.4% | viability, T/C (second compound 1 µM, first compound 0.00949 µM) 77.2% | viability, T/C (second compound 1 µM, first compound 0.03 µM) 73.7% | viability, T/C (second compound 1 µM, first compound 0.0949 µM) 66% | viability, T/C (second compound 1 µM, first compound 0.3 µM) 67.6% | viability, T/C (second compound 1 µM, first compound 0.949 µM) 64.9% | viability, T/C (second compound 1 µM, first compound 3 µM) 50.7% | viability, T/C (second compound 3.16 µM, first compound 0.00949 µM) 57% | viability, T/C (second compound 3.16 µM, first compound 0.03 µM) 58.5% | viability, T/C (second compound 3.16 µM, first compound 0.0949 µM) 51% | viability, T/C (second compound 3.16 µM, first compound 0.3 µM) 49.2% | viability, T/C (second compound 3.16 µM, first compound 0.949 µM) 41.4% | viability, T/C (second compound 3.16 µM, first compound 3 µM) 36.5% | viability, T/C (second compound 10 µM, first compound 0.00949 µM) 48.7% | viability, T/C (second compound 10 µM, first compound 0.03 µM) 44.8% | viability, T/C (second compound 10 µM, first compound 0.0949 µM) 41.4% | viability, T/C (second compound 10 µM, first compound 0.3 µM) 39.4% | viability, T/C (second compound 10 µM, first compound 0.949 µM) 35.9% | viability, T/C (second compound 10 µM, first compound 3 µM) 27.6%
< 0.00949 µM: IC50 (second compound 10 µM)
